Columns and labels:
[1] = biological target: T1, rat B1R (bradykinin receptor 1) (Rattus norvegicus, UniProt P97583); test: FLIPR Ca2+ assay (Fluo-4) on CHO K1 cells stably transfected with the B1R gene of the rat (rB1R cells): % inhibition at 10 μM / IC50, agonist Des-Arg9-bradykinin; assay type: cell-based; settings: for inhibition at 10 µM: CHO-K1, rat B1R
T1 construct: expressed in transfected cells; host or cells: CHO K1 cells
T1 sequence (P97583 1-337): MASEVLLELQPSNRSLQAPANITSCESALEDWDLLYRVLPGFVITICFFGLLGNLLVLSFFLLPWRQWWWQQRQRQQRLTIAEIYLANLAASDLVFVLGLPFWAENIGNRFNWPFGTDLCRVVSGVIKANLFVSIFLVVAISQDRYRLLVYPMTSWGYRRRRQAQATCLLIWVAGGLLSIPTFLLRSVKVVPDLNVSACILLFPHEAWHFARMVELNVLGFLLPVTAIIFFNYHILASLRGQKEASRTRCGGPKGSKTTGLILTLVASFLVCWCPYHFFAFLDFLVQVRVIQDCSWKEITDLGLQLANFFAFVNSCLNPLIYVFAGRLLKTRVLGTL
Procedure, shortened: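 Cells were Fluo-4-loaded, then test compound (10 μM, or a concentration series for IC50) was preincubated 10–20 min before agonist challenge at EC80: Lys-Des-Arg9-bradykinin for hB1R, Des-Arg9-bradykinin for rB1R. Peak Ca2+ fluorescence (ex 488/em 540 nm) gave % inhibition versus maximal achievable inhibition.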

[2] = biological target: T2, human B1R (bradykinin receptor 1) (Homo sapiens, UniProt P46663); test: FLIPR Ca2+ assay (Fluo-4) on CHO K1 cells stably transfected with the human B1R gene (hB1R cells): % inhibition at 10 μM / IC50, agonist Lys-Des-Arg9-bradykinin; assay type: cell-based; settings: for inhibition at 10 µM: CHO-K1, human B1R
T2 construct: expressed in transfected cells; host or cells: CHO K1 cells
T2 sequence (P46663 1-353): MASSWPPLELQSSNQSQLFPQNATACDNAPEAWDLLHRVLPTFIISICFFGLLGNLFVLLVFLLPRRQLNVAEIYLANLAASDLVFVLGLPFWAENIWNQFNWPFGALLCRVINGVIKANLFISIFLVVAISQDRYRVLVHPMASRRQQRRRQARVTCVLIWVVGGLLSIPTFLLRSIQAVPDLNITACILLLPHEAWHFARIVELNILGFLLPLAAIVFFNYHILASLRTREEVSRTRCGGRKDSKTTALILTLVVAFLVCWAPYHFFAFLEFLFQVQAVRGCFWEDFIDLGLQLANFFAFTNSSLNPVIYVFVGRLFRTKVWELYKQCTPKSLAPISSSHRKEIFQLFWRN
Description: The agonistic or antagonistic action of substances can be quantified on the bradykinin receptor 1 (B1R) of the human and rat species with ectopically expressing cell lines (CHO K1 cells) and with the aid of a Ca^2+-sensitive dyestuff (Fluo-4) in a fluorescent imaging plate reader (FLIPR). The figure in % activation is based on the Ca^2+ signal after addition of Lys-Des-Arg^9-bradykinin (0.5 nM) or Des-Arg^9-bradykinin (100 nM). Antagonists lead to a suppression of the Ca^2+ inflow after addition of the agonist. % inhibition compared with the maximum achievable inhibition is stated.
The agonistic or antagonistic action of substances can be determined on the bradykinin receptor 1 (B1R) of the human and rat species with the following assay. In accordance with this assay, the Ca^2+ inflow through the channel is quantified with the aid of a Ca^2+-sensitive dyestuff (type Fluo-4, Molecular Probes Europe BV, Leiden, Holland) in a fluorescent imaging plate reader (FLIPR, Molecular Devices, Sunnyvale, USA).
Chinese hamster ovary cells (CHO K1 cells) transfected stably with the human B1R gene (hB1R cells) or the B1R gene of the rat (rB1R cells) are used. For functional studies, these cells are plated out on black 96-well plates with a clear base (BD Biosciences, Heidelberg, Germany or Greiner, Frickenhausen, Germany) in a density of 20,000-35,000 cells/well. The cells are left overnight at 37° C. and 5% CO2 in culture medium (hB1R cells: Nutrient Mixture Ham's F12, Gibco Invitrogen GmbH, Karlsruhe, Germany or DMEM, Sigma-Aldrich, Taufkirchen, Germany; rB1R cells: D-MEM/F12, Gibco Invitrogen GmbH, Karlsruhe, Germany) with 10 vol. % FBS (foetal bovine serum, Gibco Invitrogen GmbH, Karlsruhe, Germany or PAN Biotech GmbH, Aidenbach, Germany). On the following day, the cells are loaded for 60 min at 37° C. with 2.13 μM Fluo-4 (Molecular Probes Europe BV, Leiden Holland) in HBSS buffer (Hank's buffered saline solution, Gibco Invitrogen GmbH, Karlsruhe, Germany) with 2.5 mM probenecid (Sigma-Aldrich, Taufkirchen, Germany) and 10 mM HEPES (Sigma-Aldrich, Taufkirchen, Germany). The plates are then washed 2× with HBSS buffer, and HBSS buffer which additionally contains 0.1% BSA (bovine serum albumin; Sigma-Aldrich, Taufkirchen, Germany), 5.6 mM glucose and 0.05% gelatine (Merck KGaA, Darmstadt, Germany) is added. After a further incubation of 20 minutes at room temperature, the plates are inserted into the FLIPR for the Ca^2+ measurement. Alternatively, the plates are washed with buffer A (15 mM HEPES, 80 mM NaCl, 5 mM KCl, 1.2 mM CaCl2, 0.7 mM MgSO4, 2 g/l glucose, 2.5 mM probenecid), buffer A is added and the plates are loaded with 2.5 μM Fluo-4 and 0.025% Pluronic F127 (Sigma-Aldrich, Taufkirchen, Germany). Thereafter, the cells are washed 2× with buffer A and incubated for 30 minutes at room temperature with buffer A, which additionally contains 0.05% BSA and 0.05% gelatine, and thereafter inserted into the FLIPR for the Ca^2+ measurement. The Ca^2+-dependent fluorescence is measured here before and after addition of substances (λex=488 nm, λem=540 nm). Quantification is by measurement of the highest fluorescence intensity (FC, fluorescence counts) over time.
The FLIPR protocol consists of 2 additions of substance. Test substances (10 μM) are first pipetted on to the cells and the Ca^2+ inflow is compared with the control (hB1R: Lys-Des-Arg^9-bradykinin>=50 nM; rB1R: Des-Arg^9-bradykinin 10 μM). This gives the result in % activation based on the Ca^2+ signal after addition of Lys-Des-Arg^9-bradykinin (>=50 nM) or Des-Arg^9-bradykinin (10 μM). After incubation for 10-20 minutes, Lys-Des-Arg^9-bradykinin (hB1R) or Des-Arg^9-bradykinin (rB1R) in the concentration of the EC80 is applied and the inflow of Ca^2+ is likewise determined. Antagonists lead to a suppression of the Ca^2+ inflow. % inhibition compared with the maximum achievable inhibition is calculated.
For determination of the IC50 value, the substances are added in various concentrations. […]

SMILES | inhibition at 10 µM [1] | inhibition at 10 µM [2] | % Inhibition (rat B1R) at 10 μM ([1]; rat B1R, 10 µM) | % Inhibition (human B1R) at 10 μM ([2]; human B1R, 10 µM)
O=C(c1ccc2c(c1)[C@@H](N1Cc3cccc(Cl)c3C1=O)CCC2)N1CCC2(CCN(c3ccncc3)CC2)C1 [Example H-15, 7-chloro-2-[(1S)-7-(8-pyridin-4-yl-3,8-diazaspiro[4.5]decane-3-carbonyl)-1,2,3,4-tetrahydro-naphthalen-1-yl]-2,3-dihydro-isoindol-1-one] | 11% | 59% |  | 
COc1cc(C)c(S(=O)(=O)N[C@@H]2CCCc3ccc(C(=O)N4CCC5(CCN(c6ccncc6)CC5)C4)cc32)c(C)c1 [Example H-16, 4-methoxy-2,6-dimehtyl-N-[(1R)-7-(8-pyridin-4-yl-3,8-diazaspiro[4.5]decane-3-carbonyl)-1,2,3,4-tetrahydro-naphthalen-1-yl]-benzenesulfonic acid amide] | 102% | 100% |  | 
COc1cc(C)c(S(=O)(=O)N[C@@H]2CCCc3ccc(C(=O)N4CCC5(CC4)CCN(c4ccncc4)CC5)cc32)c(C)c1 [Example H-17, 4-methoxy-2,6-dimethyl-N-[(1R)-7-(9-pyridin-4-yl-3,9-diazaspiro[5.5]undecane-3-carbonyl)-1,2,3,4-tetrahydro-naphthalen-1-yl]-benzenesulfonic acid amide] | 102% | 98% |  | 
COc1cc(C)c(S(=O)(=O)N[C@H]2CCCc3ccc(C(=O)N4CCC5(CCN(c6ccncc6)CC5)C4)cc32)c(C)c1 [Example H-18, 4-methoxy-2,6-dimethyl-N-[(1S)-7-(8-pyridin-4-yl-3,8-diazaspiro[4.5]decane-3-carbonyl)-1,2,3,4-tetrahydro-naphthalen-1-yl]-benzenesulfonic acid amide] | 104% | 96% |  | 
COc1cc(C)c(S(=O)(=O)N[C@H]2CCCc3ccc(C(=O)N4CCC5(CC4)CCN(c4ccncc4)CC5)cc32)c(C)c1 [Example H-19, 4-methoxy-2,6-dimethyl-N-[(1S)-7-(9-pyridin-4-yl-3,9-diazaspiro[5.5]undecane-3-carbonyl)-1,2,3,4-tetrahydro-naphthalen-1-yl]-benzenesulfonic acid amide] | 102% | 99% |  | 
O=C(N[C@H]1CCc2ccc(C(=O)N3CCC4(CCN(c5ccncc5)CC4)C3)cc21)c1ccccc1Cl [Example H-20, 2-chloro-N-[(1S)-6-(8-pyridin-4-yl-3,8-diazaspiro[4.5]decane-3-carbonyl)-2,3-dihydro-1H-indecn-1-yl]-benzamide] | 105% | 100% |  | 
O=C(N[C@@H]1CCc2ccc(C(=O)N3CCC4(CCN(c5ccncc5)CC4)C3)cc21)c1ccccc1Cl [Example H-21, 2-chloro-N-[(1R)-6-(8-pyridin-4-yl-3,8-diazaspiro[4.5]decane-3-carbonyl)-2,3-dihydro-1H-inden-1-yl]-benzamide] | 105% | 100% |  | 
O=C(N[C@@H]1CCc2ccc(C(=O)N3CCC4(CCCN(c5ccncc5)C4)CC3)cc21)c1ccccc1Cl [Example H-26, 2-chloro-N-[(1R)-6-(8-pyridin-4-yl-3,8-diazaspiro[5.5]undecane-3-carbonyl)-2,3-dihydro-1H-inden-1-yl]-benzamide] | 101% | 46% |  | 
O=C(N[C@@H]1CCc2ccc(C(=O)N3CC4(CCN(c5ccncc5)CC4)C3)cc21)c1ccccc1Cl [Example H-27, 2-chloro-N-[(1R)-6-(7-pyridin-4-yl-2,7-diazaspiro[3.5]nonane-2-carbonyl)-2,3-dihydro-1H-inden-1-yl]-benzamide] | 102% | 100% |  | 
CN1CCC(N2CCC3(CCN(C(=O)c4ccc5c(c4)[C@H](NC(=O)c4ccccc4Cl)CC5)CC3)CC2)CC1 [Example H-28, 2-chloro-N-[(1R)-6-[9-(1-methyl-piperidin-4-yl)-3,9-diazaspiro[5.5]undecane-3-carobnyl]-2,3-dihydro-1H-inden-1-yl]-benzamide] | 102% | 57% |  | 

Further lines, results first:

inhibition at 10 µM [1] | inhibition at 10 µM [2] | % Inhibition (rat B1R) at 10 μM ([1]; rat B1R, 10 µM) | % Inhibition (human B1R) at 10 μM ([2]; human B1R, 10 µM) | SMILES
55% | 33% |  |  | CN1CCN(C(=O)C2CCC3(CC2)CCN(C(=O)c2ccc4c(c2)[C@H](NC(=O)c2ccccc2Cl)CC4)CC3)CC1 [Example H-29, 2-chloro-N-[(1R)-6-[9-(4-methyl-piperazine-1-carbonyl)-3-azaspiro[5.5]undecane-3-carbonyl]-2,3-dihydro-1H-inden-1-yl]-benzamide]
101% | 99% |  |  | CC1(C)Cc2ccc(C(=O)N3CCC4(CCN(c5ccncc5)CC4)C3)cc2C1NC(=O)c1ccccc1Cl (stereo not drawn) [Example H-47, 2-chloro-N-[2,2-dimethyl-6-(8-pyridin-4-yl-3,8-diazaspiro[4.5]decane-3-carbonyl)-1,3-dihydro-inden-1-yl]-benzamide]
97% | 63% |  |  | O=C(NC1CCc2ccc(C(=O)N3CCC4(CCN(c5ccc(C(F)(F)F)cn5)CC4)C3)cc21)c1ccccc1Cl (stereo not drawn) [Example H-48, 2-chloro-N-[6-[8-[5-(trifluoromethyl)-pyridin-2-yl]-3,8-diazaspiro[4.5]decane-3-carbonyl]-2,3-dihydro-1H-inden-1-yl]-benzamide]
 |  | 100% | 99% | CN(C(=O)c1ccccc1Cl)C1CCc2ccc(C(=O)N3CCC4(CCN(c5ccncc5)CC4)C3)cc21 (stereo not drawn) [Example H-49, 2-chloro-N-methyl-N-[6-(8-pyridin-4-yl-3,8-diazaspiro[4.5]decane-3-carbonyl)-2,3-dihydro-1H-inden-1-yl]-benzamide]
98% | 98% |  |  | O=C(NC1CCc2ccc(C(=O)N3CCC4(CCN(c5ccc6cnccc6c5)CC4)C3)cc21)c1ccccc1Cl (stereo not drawn) [Example H-50, 2-chloro-N-[6-(8-isoquinolin-6-yl-3,8-diazaspiro[4.5]decane-3-carbonyl)-2,3-dihydro-1H-inden-1-yl]-benzamide]

Reference: patent US8455475B2 (Gruenenthal GmbH, priority 2009, dated 2013)
